Measurements published in patent US20230043863A1, “HETEROAROMATIC DERIVATIVES FOR USE AS REGULATOR, PREPARATION METHOD THEREFOR AND USE THEREOF” (JIANGSU HANSOH PHARMACEUTICAL GROUP CO., LTD., priority 2018, published 2023).
Like-named read-outs stand apart in the source and are kept apart here.

Experiments:
[1] = Balb/C mouse pharmacokinetics (plasma, colon, ileum); assay type: in vivo; details: male, po, Balb/C mice, p.o. 5 mg/kg; for Cmax: read-out: Blood concentration Cmax; for AUC(0-t): read-out: Curve area AUC0-t; for AUC(0-inf): read-out: Curve area AUC0-∞; for half-life: read-out: Half life period t1/2 (converted); for MRT: read-out: Mean detention time MRT; for Tmax: read-out: Time to peak tmax
From the text: Balb/C mouse was used as the test animal, the pharmacokinetic behavior in mice (plasma and colon, ileum tissue) was studied after oral administering the embodiment 1, embodiment 60, embodiment 169, embodiment 170, embodiment 171, embodiment 179, embodiment 191, embodiment 213, embodiment 214, embodiment 237, embodiment 238, embodiment 244, embodiment 246, embodiment 247, embodiment 257, embodiment 260, embodiment 262, embodiment 263, embodiment 267, embodiment 277, embodiment 278, embodiment 279, embodiment 288, embodiment 295, embodiment 299 and embodiment 301 at a dose of 5 mg/kg. After analyzing the drug concentration in the colon and ileum, the ratio of the drug concentration in the colon to that in ileum, and the ratio of the drug concentration in the colon to that in the plasma, the compounds with excellent PK were selected for further research.
12 Balb/C mice in each group, male, Shanghai Jiesjie Experimental Animal Co., Ltd., animal production license number (SCXK (Shanghai) 2013-0006 N0.311620400001794).
12 Balb/C mice in each group, male; p.o. after one night fast; the dose was 5 mg/kg; the administration volume was 10 mL/kg.
At 0, 0.5, 1, 2, 3, 5 and 7 hours before and after the administration, the mice were executed by CO2 and 0.2 mL of blood was collected from the heart, placed in an EDTA-K2 test tube, and centrifuged at 6000 rpm at 4° C. for 6 minutes to separate the plasma, which was then stored at −80° C. The ileum was taken close to the cecum end with a length of about 4-5 cm, and the colon was also taken close to the cecum end with a length of about 2-3 cm, weighed and placed in a 2 mL centrifuge tube, then stored at −80° C.
1) 40 uL of plasma sample was precipitated by adding 160 uL of acetonitrile, mixed and centrifuged at 3500×g for 5-20 minutes.
2) 30 μL of plasma and intestinal homogenate sample were precipitated by adding 90 of acetonitrile containing internal standard (100 ng/mL), mixed and centrifuged at 13000 rpm for 8 minutes.
3) 70 μL of the supernatant solution after treatment was collected and 70 μL of water was added thereto, vortexed and mixed for 10 minutes, and then 20 μL was collected to analyze the concentration of the test compound by LC/MS/MS. LC/MS/MS analysis instrument: AB Sciex API 4000 Qtrap.
Liquid phase conditions: Shimadzu LC-20AD Pump
Chromatographic column: Agilent ZORBAX XDB-C18 (50×2.1 mm, 3.5 μm) mobile phase: 0.1% formic acid aqueous solution as A solution, acetonitrile as B solution
Elution time: 0-4.0 minutes, the eluent is as follows:
The main pharmacokinetic parameters were calculated with WinNonlin 6.1, and the results of mouse pharmacokinetic experiments are shown in Table 3:
NA refers to none detected or not being tested (the detection limit of blood concentration was 1 ng/mL, when the Cmax in the blood test is NA, then NA in the blood test index refers to none detected; when the Cmax in the blood test is higher than the quantitative limit 1 ng/mL, then NA in the blood test index refers to not being tested; NA in the tissues (colon and ileum) refers to not being tested).

TYK2 = TYK2 (Homo sapiens, UniProt P29597); assay: JAK kinase activity inhibition, TR-FRET (TYK2); assay type: biochemical; details: TR-FRET kinase assay
TYK2, sequence (P29597 whole entry): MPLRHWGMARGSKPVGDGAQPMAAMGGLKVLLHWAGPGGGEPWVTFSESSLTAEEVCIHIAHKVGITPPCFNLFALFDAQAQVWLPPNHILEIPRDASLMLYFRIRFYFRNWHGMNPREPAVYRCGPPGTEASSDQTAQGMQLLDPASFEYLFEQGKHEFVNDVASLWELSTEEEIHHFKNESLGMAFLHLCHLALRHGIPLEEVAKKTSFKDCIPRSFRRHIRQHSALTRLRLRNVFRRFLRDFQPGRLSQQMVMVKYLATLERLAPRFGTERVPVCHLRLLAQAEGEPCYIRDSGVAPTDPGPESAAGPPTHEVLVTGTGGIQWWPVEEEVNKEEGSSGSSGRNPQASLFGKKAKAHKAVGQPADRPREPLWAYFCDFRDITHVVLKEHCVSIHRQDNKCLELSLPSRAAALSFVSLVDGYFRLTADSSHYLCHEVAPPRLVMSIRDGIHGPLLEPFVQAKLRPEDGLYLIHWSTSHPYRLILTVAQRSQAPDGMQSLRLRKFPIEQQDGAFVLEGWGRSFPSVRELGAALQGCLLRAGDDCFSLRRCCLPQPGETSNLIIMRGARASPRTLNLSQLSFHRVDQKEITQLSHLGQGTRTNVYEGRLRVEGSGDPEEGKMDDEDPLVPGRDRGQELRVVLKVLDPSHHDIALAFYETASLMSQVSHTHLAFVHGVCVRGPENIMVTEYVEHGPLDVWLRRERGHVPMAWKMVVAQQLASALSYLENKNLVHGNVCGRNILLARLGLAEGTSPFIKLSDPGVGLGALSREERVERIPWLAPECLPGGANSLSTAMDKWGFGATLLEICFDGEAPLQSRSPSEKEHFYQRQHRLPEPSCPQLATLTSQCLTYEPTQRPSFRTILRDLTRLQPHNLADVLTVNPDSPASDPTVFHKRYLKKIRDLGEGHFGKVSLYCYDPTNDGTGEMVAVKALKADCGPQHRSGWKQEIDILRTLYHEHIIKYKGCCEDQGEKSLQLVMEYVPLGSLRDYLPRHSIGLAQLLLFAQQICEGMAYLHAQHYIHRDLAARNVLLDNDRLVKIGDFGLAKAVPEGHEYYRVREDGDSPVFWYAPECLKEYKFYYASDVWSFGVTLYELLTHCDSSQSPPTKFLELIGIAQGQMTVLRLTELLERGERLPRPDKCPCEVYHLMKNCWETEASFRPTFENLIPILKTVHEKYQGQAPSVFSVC
Summary of the method: (§1)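 TR-FRET read (≈620 and 665 nm) after EDTA quench and 1-24 h antibody detection at RT. Kinase 0.1-20 nM, peptide substrate + ATP, 0.5-5 h RT reaction in HEPES 50-250 mM, MgCl2 5-20 mM. IC50 from 4-parameter fit vs DMSO and no-kinase controls.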

JAK2 = JAK2 (Homo sapiens, UniProt O60674); assay: JAK kinase activity inhibition, TR-FRET (JAK2); assay type: biochemical; details: TR-FRET kinase assay
JAK2, sequence (O60674 whole entry): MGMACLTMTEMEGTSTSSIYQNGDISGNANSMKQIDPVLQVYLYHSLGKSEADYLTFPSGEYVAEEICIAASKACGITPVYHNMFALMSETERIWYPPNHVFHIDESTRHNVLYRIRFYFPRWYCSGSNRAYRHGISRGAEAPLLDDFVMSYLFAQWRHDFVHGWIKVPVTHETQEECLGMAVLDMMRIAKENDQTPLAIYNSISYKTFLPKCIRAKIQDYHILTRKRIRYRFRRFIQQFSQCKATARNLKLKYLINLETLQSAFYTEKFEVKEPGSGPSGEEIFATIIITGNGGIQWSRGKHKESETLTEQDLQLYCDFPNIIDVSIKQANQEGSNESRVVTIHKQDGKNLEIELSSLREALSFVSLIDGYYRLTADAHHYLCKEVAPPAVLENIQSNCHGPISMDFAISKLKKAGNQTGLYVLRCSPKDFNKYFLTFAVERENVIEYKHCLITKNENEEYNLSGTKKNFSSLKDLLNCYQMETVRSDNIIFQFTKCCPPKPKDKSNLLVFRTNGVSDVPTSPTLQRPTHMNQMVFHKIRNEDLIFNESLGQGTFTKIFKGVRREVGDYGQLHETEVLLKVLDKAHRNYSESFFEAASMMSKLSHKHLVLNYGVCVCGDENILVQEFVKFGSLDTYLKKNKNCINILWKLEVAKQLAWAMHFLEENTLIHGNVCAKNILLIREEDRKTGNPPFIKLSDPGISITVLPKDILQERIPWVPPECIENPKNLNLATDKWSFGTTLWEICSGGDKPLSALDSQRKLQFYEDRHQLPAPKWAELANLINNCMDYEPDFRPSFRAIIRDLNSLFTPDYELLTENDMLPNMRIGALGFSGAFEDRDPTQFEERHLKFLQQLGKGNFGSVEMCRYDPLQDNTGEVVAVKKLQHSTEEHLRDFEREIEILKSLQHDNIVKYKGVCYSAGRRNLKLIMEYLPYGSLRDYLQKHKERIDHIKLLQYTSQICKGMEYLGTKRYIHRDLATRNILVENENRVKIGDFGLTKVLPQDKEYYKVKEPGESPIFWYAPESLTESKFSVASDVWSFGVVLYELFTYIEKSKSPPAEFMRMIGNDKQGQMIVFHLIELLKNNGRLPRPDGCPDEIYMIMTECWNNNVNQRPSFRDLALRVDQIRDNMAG
Summary of the method: as §1

Compound	Cmax ([1]; plasma, blood) [ng/mL]	AUC(0-t) ([1]; plasma, blood) [ng·h/mL]	AUC(0-inf) ([1]; plasma, blood) [ng·h/mL]	half-life ([1]; plasma, blood) [h]	MRT ([1]; plasma, blood) [h]	Tmax ([1]; plasma, blood) [h]	Cmax ([1]; colon) [ng/mL]	AUC(0-t) ([1]; colon) [ng·h/mL]	MRT ([1]; colon) [h]	Tmax ([1]; colon) [h]	Cmax ([1]; ileum) [ng/mL]	AUC(0-t) ([1]; ileum) [ng·h/mL]	AUC(0-inf) ([1]; ileum) [ng·h/mL]	half-life ([1]; ileum) [h]	MRT ([1]; ileum) [h]	Tmax ([1]; ileum) [h]	IC50 (TYK2) [nM]	IC50 (JAK2) [nM]	AUC(0-inf) ([1]; colon) [ng·h/mL]	half-life ([1]; colon) [h]
Cc1cnc(Nc2cc3ncccc3c(N[C@@H]3C[C@H]4CC[C@@H](C3)N4CCC#N)n2)s1 [Embodiment 1, 3-((3-exo)-3-((7-((5-methylthioazol-2-yl)amino)-1,6-diazanaphthalen-5-yl)amino)-8-azabicyclo[3.2.1]oct-8-yl)propionitrile]	25.6	58.1	61.5	1.75	2.03	0.5	2720	8320	3.68	3	27100	90500	93700	1.08	2.84	3	0.55	0.69		
Cc1cc(Nc2nc(N[C@@H]3C[C@H]4CC[C@@H](C3)N4CCC#N)nc3ccsc23)n[nH]1 [Embodiment 60, 3-((3-exo)-3-((4-((5-methyl-1H-pyrazol-3-yl)amino)thieno[3,2-d]pyrimidin-2-yl)amino)-8-azabicyclo[3.2.1]oct-8-yl)propionitrile]	10.3	31.1	32.9	1.41	2.58	2	2310	9130	3.83	5	26100	98000	103000	1.26	2.49	1	0.46			
COc1ccc2c(Nc3cc(C)[nH]n3)nc(N[C@@H]3C[C@H]4CC[C@@H](C3)N4CCC#N)nc2c1 [Embodiment 169, 3-((3-exo)-3-((7-methoxyl-4-((5-methyl-1H-pyrazol-3-yl)amino)quinazolin-2-yl)amino)-8-azabicyclo[3.2.1]oct-8-yl)propionitrile]	2.21	3.04			1.08	0.5	9010	23200	2.29	5	23300	68900			4.64	1	0.5	1.07		
Cc1cc(Nc2nc(N[C@@H]3C[C@H]4CC[C@@H](C3)N4CCC#N)nc3cc(Br)ccc23)n[nH]1 [Embodiment 170, 3-((3-exo)-3-((7-bromine-4-((5-methyl-1H-pyrazol-3-yl)amino)quinazolin-2-yl)amino)-8-azabicyclo[3.2.1]oct-8-yl)propionitrile]	16	36.7			4.13	7	4320	13000	3.36	3	49900	118000	172000	5.48	2.19	1	0.225			
Cc1cc(Nc2nc(N[C@@H]3C[C@H]4CC[C@@H](C3)N4CCC#N)nc3cc(Cl)ccc23)n[nH]1 [Embodiment 171, 3-((3-exo)-3-((7-chloro-4-((5-methyl-1H-pyrazol-3-yl)amino)quinazolin-2-yl)amino)-8-azabicyclo[3.2.1]oct-8-yl)propionitrile]	8.91	23.4	26.7	1.93	3.05	2	438	2010	4.24	3	17000	79800			3.35	3	0.6	0.67		
Cc1cc(Nc2nc(N[C@@H]3C[C@H]4CC[C@@H](C3)N4S(=O)(=O)N3CC(C#N)C3)nc3ccccc23)n[nH]1 [Embodiment 213, 1-(((3-exo)-3-((4-((5-methyl-1H-pyrazol-3-yl)amino)quinazolin-2-yl)amino)-8-azabicyclo[3.2.1]oct-8-yl)sulfonyl)azetindin-3-formonitrile]	9.69	7.37			2.66	3	1750	4930	4.92	5	321	1240			4.26	5	0.46	0.3		
Cc1cc(Nc2nc(N[C@@H]3C[C@H]4CC[C@@H](C3)N4S(=O)(=O)N3CC(C#N)C3)nc3cc(Cl)ccc23)n[nH]1 [Embodiment 214]	1.6	3.59			1.82	3	5590	19500	4.4	5	24800	49300	49500	0.79	1.52	1	0.455	0.82		
Cc1cc(Nc2nc(N[C@@H]3C[C@H]4CC[C@@H](C3)N4S(=O)(=O)N3CC(C#N)C3)nc3sccc23)n[nH]1 [Embodiment 237, 1-(((3-exo)-3-((4-((5-methyl-1H-pyrazol-3-yl)amino)thieno[2,3-d]pyrimidin-2-yl)amino)-8-azabicyclo[3.2.1]oct-8-yl)sulfonyl)azetindin-3-formonitrile]	7.12	11			1.73	2	2210	6460	3.43	3	4140	15300	15400	0.55	2.43	3	0.32	0.79	7240	1.52
Cc1cc(Nc2nc(N[C@@H]3C[C@H]4CCC[C@@H](C3)N4S(=O)(=O)N3CC(C#N)C3)nc3sccc23)n[nH]1 [Embodiment 238]	12.7	19.6			1.47	1	1320	5270	4.16	3	21000	36600	36600	0.58	1.29	1	0.12	0.44	7380	2.89
